Reference: paper PMC10982999, “Structure-Guided Design and Optimization of Covalent VHL-Targeted Sulfonyl Fluoride PROTACs” (Journal of Medicinal Chemistry, 2024)

How the values were obtained:
AR-HiBiT LNCaP cells = conditions: 16 h, 75 μM-1 pM
[1] = biological target: T1, AR (AR-HiBiT LNCaP cells) (Homo sapiens, UniProt P10275, T878A); assay: AR HiBiT degradation assay; format: cell-based; conditions: for Dmax / DC50: LNCaP; for Dmax: read-out: Dmax (AR degradation); for AR degradation in presence of MLN4924: MLN4924 1 μM 3 h pretreatment, then compound 18 h; for AR degradation in presence of epoxomicin: epoxomicin 1 μM 3 h pretreatment, then compound 16 h; for DC50: read-out: DC50 (AR degradation), 16 h
T1 construct: host or cells: AR-HiBiT KI LNCaP
T1 sequence (P10275 1-920 T878A): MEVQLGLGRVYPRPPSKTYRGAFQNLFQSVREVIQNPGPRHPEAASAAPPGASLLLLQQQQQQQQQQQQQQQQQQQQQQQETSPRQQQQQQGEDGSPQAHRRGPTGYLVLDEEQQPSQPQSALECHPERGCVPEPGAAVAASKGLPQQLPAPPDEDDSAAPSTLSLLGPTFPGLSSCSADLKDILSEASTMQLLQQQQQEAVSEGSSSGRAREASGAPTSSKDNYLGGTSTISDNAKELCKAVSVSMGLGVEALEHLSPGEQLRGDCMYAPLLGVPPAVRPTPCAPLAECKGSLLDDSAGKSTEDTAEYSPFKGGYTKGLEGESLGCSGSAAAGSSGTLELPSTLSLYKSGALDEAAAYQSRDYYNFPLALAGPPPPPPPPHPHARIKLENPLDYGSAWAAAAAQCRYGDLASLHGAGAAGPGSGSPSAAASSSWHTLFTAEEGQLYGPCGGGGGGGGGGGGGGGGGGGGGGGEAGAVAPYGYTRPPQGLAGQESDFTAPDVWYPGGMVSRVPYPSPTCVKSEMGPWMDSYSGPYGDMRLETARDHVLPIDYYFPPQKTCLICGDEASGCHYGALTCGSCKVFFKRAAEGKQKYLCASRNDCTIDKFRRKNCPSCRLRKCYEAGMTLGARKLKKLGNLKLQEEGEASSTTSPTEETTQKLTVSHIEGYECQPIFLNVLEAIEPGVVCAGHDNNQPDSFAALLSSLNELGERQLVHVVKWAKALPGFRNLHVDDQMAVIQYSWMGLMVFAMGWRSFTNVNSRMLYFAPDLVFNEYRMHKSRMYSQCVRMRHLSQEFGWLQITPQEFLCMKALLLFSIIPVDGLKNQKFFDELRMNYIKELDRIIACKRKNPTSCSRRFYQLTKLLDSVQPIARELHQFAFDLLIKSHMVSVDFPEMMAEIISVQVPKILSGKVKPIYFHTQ
Protocol: Cellular BRD4/AR HiBiT assay
The HiBiT tagged cells were seeded at 10,000 cells per well in a 384-well plate (Thermo Scientific, 164610) at 25 µL per well in DMEM media containing 10% FBS and incubated overnight. Compounds were dispensed using D300e Digital Dispenser (HP) and normalized to 0.1% DMSO. Cells were pre-treated with Epoxomicin or MLN4924 for 3 h before treatment […]
Nano -Glo HiBiT lytic detection assay was performed as described in the manufacturer protocol (Promega). 25 µL of premixed detection reagent was added to each well of the 384 well assay plate and incubated for 15 min on an orbital shaker (at 600 RPM), and luminescence was read using a PHERAstar FS plate reader (BMG Labtech). Corresponding background RLU values were subtracted from DMSO control values and the percentage of protein (%) of were then calculated against […]
DMSO-treated controls. […]
1:1000 WB), Tubulin (Sigma #4967S 1:5000 WB).

Compound: Cc1cc([C@H](C(=O)N2C[C@H](S(=O)(=O)F)C[C@H]2C(=O)N[C@@H](CC(=O)N2CCC(C#Cc3ccc(C(=O)N[C@H]4C(C)(C)[C@H](Oc5ccc(C#N)c(Cl)c5)C4(C)C)cc3)CC2)c2ccc(-c3scnc3C)cc2)C(C)C)on1 [AR2-VHL-SF2, (3R,5S)-5-(((S)-3-(4-((4-(((1r,3r)-3-(3-Chloro-4-cyanophenoxy)-2,2,4,4-tetramethylcyclobutyl)-carbamoyl)phenyl)ethynyl)piperidin-1-yl)-1-(4-(4-methylthiazol-5-yl)phenyl)-3-oxopropyl)-carbamoyl)-1-((R)-3-methyl-2-(3-methylisoxazol-5-yl)butanoyl)pyrrolidine-3-sulfonyl fluoride]
- cytotoxicity (CellTiter-Glo) (AR-HiBiT LNCaP cells): did not exhibit cytotoxicity
- Dmax [1]: 59%
- AR degradation in presence of MLN4924 [1]: AR degradation blockade
- AR degradation in presence of epoxomicin [1]: AR degradation blockade
- DC50 [1]: 212 nM

Compound: Cc1cc([C@H](C(=O)N2C[C@H](S(=O)(=O)F)C[C@H]2C(=O)N[C@@H](CC(=O)N2CCC(C#Cc3ccc(C(=O)N[C@H]4C(C)(C)[C@H](Oc5ccc(C#N)c(C(F)(F)F)c5)C4(C)C)cc3)CC2)c2ccc(-c3scnc3C)cc2)C(C)C)on1 [AR-VHL-SF2, (3R,5S)-5-(((S)-3-(4-((4-(((1r,3r)-3-(4-Cyano-3-(trifluoromethyl)phenoxy)-2,2,4,4-tetramethyl-cyclobutyl)carbamoyl)phenyl)ethynyl)piperidin-1-yl)-1-(4-(4-methylthiazol-5-yl)phenyl)-3-oxo-propyl)carbamoyl)-1-((R)-3-methyl-2-(3-methylisoxazol-5-yl)butanoyl)pyrrolidine-3-sulfonyl fluoride]
- cytotoxicity (CellTiter-Glo) (AR-HiBiT LNCaP cells): did not exhibit cytotoxicity
- Dmax [1]: 54%
- AR degradation in presence of MLN4924 [1]: AR degradation blockade
- AR degradation in presence of epoxomicin [1]: AR degradation blockade
- DC50 [1]: 527 nM
